Data as given in US20160115540A1, “PRODRUGS AND DRUGS” (Biogen MA Inc., priority 2013, published 2016).
Structures can show the parent of a compound that is named as a salt.

Tested on: brain
Assay: Transcriptional profiling, multi-dosing regimen, naïve mice: brain
Assay type: in vivo
Conditions: for FC: BRAIN_HEMI, 100DMF-vs-Veh; for FC, Depp (1433836_PM_a_at): BrainHemi, multi-dosing; for Number of differentially expressed genes identified: Brain Hemi: Table 13: Naïve, Single Dose (so in the source), 12 h after last dosing
Procedure: In vivo, DMF is rapidly metabolized to monomethyl fumarate (MMF). […] Animals were exposed to CO2 and whole blood collected via cardiac puncture. Two 100 μl aliquots of whole blood were collected in 1.5 mL microcentrifuge tubes and snap frozen in liquid nitrogen. Peripheral (liver, spleen, kidney and jejunum) and CNS brain (cerebellum, hippocampus, striatum and cortex) tissues were harvested and snap frozen in liquid nitrogen, with special care taken to collect tissues of similar size and from the same location. All samples were stored at -80° C. until RNA extraction was conducted. For RNA preparation, frozen tissues were placed in 2 mL RNAse-free 96-well blocks with 1.5 mL QIAzol Lysis Reagent (QIAgen) and a 3.2 mm stainless steel bead (BioSpec Products, Bartlesville, Okla.). Tissues were disrupted for four cycles of 45 seconds in a Mini-Beadbeater (Biospec Products). RNA was extracted in chloroform and the aqueous phase was mixed with an equal volume of 70% ethanol. Extracted RNA was applied to RNeasy 96 plates and purified by the spin method according to the manufacturer's protocol (RNeasy 96 Universal Tissue Protocol, QIAgen, Hilden Germany). […] Two micrograms of biotin labeled […] probe were hybridized to Affymetrix GeneChip Affymetrix HT_MG-430_PM plate arrays with modified conditions as described in […] et al. Washing and staining of the hybridized arrays were completed as described in the GeneChip Expression analysis technical manual for HT plate arrays using the Genechip® Array Station (Affymetrix, Santa Clara, Calif.) with modifications as described in […] et al. The processed GeneChip® plate arrays were scanned using GeneTitan scanner (Affymetrix, Santa Clara, Calif.). Affymetrix scans were subject to quality control (QC) measures. These tests included a visual inspection of the distribution of raw signal intensities and an assessment of RNA degradation, relative log expression (RLE), and normalized unsealed standard error (NUSE). All sample scans that passed these QC metrics were included in the analysis. All CEL files were subjected to GC-content-based Robust Multi-array Average (GCRMA) normalization (version 2.20.0) (Irizarry R A, et al. Nucleic Acids Res 2003; 31:e15; Li C, et al. […] Stat Appl Genet Mol Biol 2004; 3:Article3). […] Springer Science+Business Media 2005). Changes in gene expression were studied by applying a linear modeling approach to fit gene expression levels according to the defined groups of samples (e.g. DMF-, MMF-, and Vehicle-treated animals) and Bayesian posterior error analysis as implemented by Smyth (Smyth G K. Stat Appl Genet Mol Biol 2004; 3:Article3). The comparisons considered included: DMF-vs-MMF, DMF-vs-Vehicle, and MMF-vs-Vehicle. […] Very few DEGs are observed in blood and tissues derived from the central nervous system (brain, cerebellum, cortex, striatum, and spinal cord).

COC(=O)/C=C/C(=O)OC [DMF, dimethyl fumarate]
FC (2310079F09Rik 1433201_PM_at): 2.00
FC (8430408G22Rik 1433836_PM_a_at): 1.77
FC, Depp (1433836_PM_a_at) (DMF-vs-MMF): 1.78
FC, Depp (1433836_PM_a_at) (DMF-vs-Vehicle): 1.77
FC (Pvrl3 1457257_PM_x_at): −1.69
Number of differentially expressed genes identified: Brain Hemi (100 mpk DMF-vs-90 mpk MMF): 8
Number of differentially expressed genes identified: Brain Hemi (100 mpk DMF-vs-Vehicle): 3
DEPP gene induction (mRNA) (brain, multi-dosing regimen, naïve mice): robustly induced
